Common to all, as to experiment: Glycosidase assay, p-nitrophenyl substrate
Type in all cases: biochemical

The target of assay [1] is T1, α-D-glucosidase (Saccharomyces cerevisiae, UniProt P53341).
T1 construct: purchased Sigma Aldrich Chemicals Limited
The settings on record: Saccharomyces cerevisiae enzyme; screened at 0.14 mg mL−1 (footnote: 0.4 mM); 20° C.

In the next assay the test system is β-D-glucosidase. The settings on record: Almond enzyme; screened at 0.14 mg mL−1 (footnote: 0.4 mM).
For a further assay, the target named is T2, α-D-galactosidase (Coffea arabica, UniProt Q42656).
T2 construct: purchased Sigma Aldrich Chemicals Limited
To be noted: Green coffee bean enzyme; screened at 0.14 mg mL−1 (footnote: 0.4 mM).

Another assay has as its system Naringinase. The settings on record: Penicillium decumbens enzyme; screened at 0.14 mg mL−1 (footnote: 0.4 mM).
The target in assay [2] is T3, N-acetyl-β-D-hexosaminidase (Aspergillus oryzae, UniProt Q8J2T0).
T3 construct: purchased Sigma Aldrich Chemicals Limited
To be noted: Aspergillus oryzae enzyme; screened at 0.14 mg mL−1 (footnote: 0.4 mM).

Assay [3] addresses T4, α-D-glucosidase (Oryza sativa subsp. japonica, UniProt Q653V7).
T4 construct: purchased Sigma Aldrich Chemicals Limited
To be noted: Rice enzyme; screened at 0.14 mg mL−1 (footnote: 0.4 mM).

Another assay addresses T5, Amyloglucosidase (Aspergillus niger, UniProt P69328).
T5 construct: purchased Sigma Aldrich Chemicals Limited
The settings on record: Aspergillus niger enzyme; screened at 0.14 mg mL−1 (footnote: 0.4 mM).

The next assay has as its target T6, α-D-mannosidase (Canavalia ensiformis, UniProt C0HJB3).
T6 construct: purchased Sigma Aldrich Chemicals Limited
T6 sequence (C0HJB3 1-981): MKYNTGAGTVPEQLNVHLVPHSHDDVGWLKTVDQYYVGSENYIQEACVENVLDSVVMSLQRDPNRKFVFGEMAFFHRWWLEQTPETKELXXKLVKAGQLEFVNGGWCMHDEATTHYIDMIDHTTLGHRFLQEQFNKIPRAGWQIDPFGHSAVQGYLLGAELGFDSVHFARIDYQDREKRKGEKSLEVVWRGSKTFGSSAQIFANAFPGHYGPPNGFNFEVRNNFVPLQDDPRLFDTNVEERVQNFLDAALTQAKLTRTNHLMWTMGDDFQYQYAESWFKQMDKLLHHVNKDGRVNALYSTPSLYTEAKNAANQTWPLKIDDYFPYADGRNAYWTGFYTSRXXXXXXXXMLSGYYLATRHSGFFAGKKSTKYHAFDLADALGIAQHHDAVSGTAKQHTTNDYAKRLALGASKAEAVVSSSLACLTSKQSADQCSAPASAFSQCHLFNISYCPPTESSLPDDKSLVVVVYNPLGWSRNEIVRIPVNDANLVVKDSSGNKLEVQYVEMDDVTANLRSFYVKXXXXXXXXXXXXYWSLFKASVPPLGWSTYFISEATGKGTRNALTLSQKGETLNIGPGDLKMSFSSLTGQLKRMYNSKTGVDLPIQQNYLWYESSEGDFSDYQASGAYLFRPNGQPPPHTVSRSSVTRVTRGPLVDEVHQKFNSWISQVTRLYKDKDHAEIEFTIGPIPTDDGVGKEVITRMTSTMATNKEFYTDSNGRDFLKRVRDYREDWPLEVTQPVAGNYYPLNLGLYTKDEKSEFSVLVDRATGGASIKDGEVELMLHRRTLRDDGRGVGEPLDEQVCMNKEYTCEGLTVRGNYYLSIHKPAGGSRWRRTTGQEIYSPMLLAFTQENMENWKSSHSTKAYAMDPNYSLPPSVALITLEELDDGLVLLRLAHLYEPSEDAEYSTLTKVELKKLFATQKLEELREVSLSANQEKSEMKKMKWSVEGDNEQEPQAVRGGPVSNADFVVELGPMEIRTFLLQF
To be noted: Jack bean enzyme; screened at 0.14 mg mL−1 (footnote: 0.4 mM).

Assay [4] concerns N-acetyl-β-D-glucosaminidase. To be noted: screened at 0.14 mg mL−1 (footnote: 0.4 mM).
A further assay has as its system β-D-mannosidase. To be noted: Cellullomonas fimi enzyme; screened at 0.14 mg mL−1 (footnote: 0.4 mM).

T4 sequence (Q653V7 34-885): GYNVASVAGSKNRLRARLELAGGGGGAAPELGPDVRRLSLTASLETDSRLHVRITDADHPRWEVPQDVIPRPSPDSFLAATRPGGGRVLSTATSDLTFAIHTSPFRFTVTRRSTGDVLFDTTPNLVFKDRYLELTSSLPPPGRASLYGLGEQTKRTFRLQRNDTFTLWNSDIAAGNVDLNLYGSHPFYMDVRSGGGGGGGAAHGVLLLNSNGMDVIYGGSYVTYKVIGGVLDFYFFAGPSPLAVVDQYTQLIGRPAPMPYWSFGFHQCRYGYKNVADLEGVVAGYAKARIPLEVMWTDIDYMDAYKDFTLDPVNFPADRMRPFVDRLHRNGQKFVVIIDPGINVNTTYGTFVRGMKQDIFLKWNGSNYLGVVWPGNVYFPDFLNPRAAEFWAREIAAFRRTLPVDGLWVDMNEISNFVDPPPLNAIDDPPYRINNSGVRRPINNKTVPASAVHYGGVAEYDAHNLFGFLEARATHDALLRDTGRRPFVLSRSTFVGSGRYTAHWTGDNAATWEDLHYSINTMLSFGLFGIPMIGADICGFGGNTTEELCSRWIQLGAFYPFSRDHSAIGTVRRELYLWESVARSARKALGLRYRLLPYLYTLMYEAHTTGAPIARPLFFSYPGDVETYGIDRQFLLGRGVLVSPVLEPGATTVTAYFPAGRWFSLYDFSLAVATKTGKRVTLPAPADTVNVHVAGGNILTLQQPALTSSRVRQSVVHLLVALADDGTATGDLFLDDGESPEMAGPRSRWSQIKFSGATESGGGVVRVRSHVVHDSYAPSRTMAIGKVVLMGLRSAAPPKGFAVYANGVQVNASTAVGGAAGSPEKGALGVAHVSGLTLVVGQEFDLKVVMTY
T5 sequence (P69328 25-640): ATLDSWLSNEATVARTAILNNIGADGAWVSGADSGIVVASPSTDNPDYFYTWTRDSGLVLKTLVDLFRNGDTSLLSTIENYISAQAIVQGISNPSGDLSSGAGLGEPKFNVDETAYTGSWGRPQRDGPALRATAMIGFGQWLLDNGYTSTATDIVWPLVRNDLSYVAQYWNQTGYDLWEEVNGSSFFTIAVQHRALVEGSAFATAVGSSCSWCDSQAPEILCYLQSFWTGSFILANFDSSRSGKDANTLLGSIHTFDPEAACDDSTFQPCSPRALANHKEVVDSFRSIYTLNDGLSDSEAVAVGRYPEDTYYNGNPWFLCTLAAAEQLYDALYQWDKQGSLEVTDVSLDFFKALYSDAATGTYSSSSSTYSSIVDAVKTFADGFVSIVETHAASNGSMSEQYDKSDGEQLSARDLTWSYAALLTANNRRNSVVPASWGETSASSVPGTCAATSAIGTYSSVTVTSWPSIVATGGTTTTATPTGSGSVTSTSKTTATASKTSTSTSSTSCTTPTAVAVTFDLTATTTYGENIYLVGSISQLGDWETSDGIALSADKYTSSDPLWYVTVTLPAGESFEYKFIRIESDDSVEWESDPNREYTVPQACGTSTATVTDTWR
T2 sequence (Q42656 16-378): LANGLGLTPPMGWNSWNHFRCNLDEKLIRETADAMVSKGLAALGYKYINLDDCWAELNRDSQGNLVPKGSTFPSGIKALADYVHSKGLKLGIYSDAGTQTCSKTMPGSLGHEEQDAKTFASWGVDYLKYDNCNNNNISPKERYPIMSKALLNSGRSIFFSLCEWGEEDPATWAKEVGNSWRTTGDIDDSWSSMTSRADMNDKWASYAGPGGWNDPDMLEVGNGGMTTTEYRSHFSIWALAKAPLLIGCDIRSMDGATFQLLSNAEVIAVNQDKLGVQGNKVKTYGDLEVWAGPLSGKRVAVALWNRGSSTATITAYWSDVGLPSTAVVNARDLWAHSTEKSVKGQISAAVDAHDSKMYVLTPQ
T1 sequence (P53341 whole entry): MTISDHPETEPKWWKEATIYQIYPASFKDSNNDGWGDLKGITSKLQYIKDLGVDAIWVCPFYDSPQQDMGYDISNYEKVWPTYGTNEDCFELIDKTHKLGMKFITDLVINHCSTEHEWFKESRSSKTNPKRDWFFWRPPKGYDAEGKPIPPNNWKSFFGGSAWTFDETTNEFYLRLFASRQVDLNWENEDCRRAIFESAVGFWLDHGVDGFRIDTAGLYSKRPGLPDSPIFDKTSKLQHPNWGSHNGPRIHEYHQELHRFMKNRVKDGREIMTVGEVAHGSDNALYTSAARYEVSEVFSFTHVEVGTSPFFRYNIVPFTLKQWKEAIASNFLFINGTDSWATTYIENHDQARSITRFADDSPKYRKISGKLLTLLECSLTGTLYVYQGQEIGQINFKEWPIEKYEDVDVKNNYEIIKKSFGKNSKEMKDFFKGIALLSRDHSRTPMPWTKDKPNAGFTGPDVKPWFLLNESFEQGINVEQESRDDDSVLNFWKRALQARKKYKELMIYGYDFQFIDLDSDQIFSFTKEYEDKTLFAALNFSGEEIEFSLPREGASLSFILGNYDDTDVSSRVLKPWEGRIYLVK
T3 sequence (Q8J2T0 97-600): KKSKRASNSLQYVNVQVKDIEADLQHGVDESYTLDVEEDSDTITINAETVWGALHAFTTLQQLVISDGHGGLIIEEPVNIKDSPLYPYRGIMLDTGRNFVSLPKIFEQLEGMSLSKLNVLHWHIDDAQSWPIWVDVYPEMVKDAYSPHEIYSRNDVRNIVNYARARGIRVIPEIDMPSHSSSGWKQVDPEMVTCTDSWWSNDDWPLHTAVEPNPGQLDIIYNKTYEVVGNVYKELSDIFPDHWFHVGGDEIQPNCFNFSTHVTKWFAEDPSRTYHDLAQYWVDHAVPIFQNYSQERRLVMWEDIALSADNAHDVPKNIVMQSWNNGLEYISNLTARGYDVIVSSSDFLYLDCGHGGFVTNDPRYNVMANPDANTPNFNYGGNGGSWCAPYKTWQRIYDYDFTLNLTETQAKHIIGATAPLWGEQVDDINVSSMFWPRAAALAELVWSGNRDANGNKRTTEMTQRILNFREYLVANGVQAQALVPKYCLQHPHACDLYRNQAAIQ

`OC[C@H]1N[C@H](CO)[C@@H](O)[C@@H]1O` [DMDP]: the “% inhibition” value is given as 97.37% at α-D-glucosidase [1]; 96.61% in the assay on β-D-glucosidase; 6.95% at α-D-galactosidase; 2.97% in the assay on Naringinase; 5.62% in assay [2]; 94.59% at α-D-glucosidase [3]. Moreover, the “% inhibition” value on Amyloglucosidase is 46.84%; on α-D-mannosidase it was 2.70%; in assay [4] (Bovine kidney enzyme) it was −7.60%; in assay [4] (Jack bean enzyme), −6.65%; in the assay on β-D-mannosidase, 93.34%.

In general, % inhibition refers to the change of the read-out against control, counted positive when it falls.

The record behind these values is patent US20260078089A1, “BIOACTIVE PHYTOCHEMICALS IN ZIZYPHUS AND GUARANA” (Phytoquest Limited, priority 2018, published 2026).
